Source: US20240018151A1, “NOVEL INHIBITORS OF PIKFYVE AND METHODS USING SAME” (priority 2020, published 2024)
Like-named read-outs stand apart in the source and are kept apart here.

Key:
PIKFYVE [1] = target: T1, PIKFYVE (Homo sapiens (Human), UniProt Q9Y2I7); test: KINOMEScan Kinase Assay, PIKFYVE binding; conditions: for % Inhib. (50 nM): 50 nM compound; for inhibition at 0.05 µM: read-out: % Inhib. (50 nM)
[2] = test system: SARS-CoV-2 spike pseudovirus in BHK21/hACE2 cells; test: microbe, parasite or virus in culture; type: cell-based; conditions: Severe acute respiratory syndrome coronavirus 2, BHK-21
in vitro = conditions: hamster
PIKFYVE [3] = target: T1, PIKFYVE; test: ADP-GLO Kinase Assay, PIKFYVE inhibitory activity; type: biochemical; conditions: substrate PI3P 10,000 nM
Experimental: (§1) Briefly, 4× compound solution and 4×ATP solution are prepared with assay buffer (50 mM MOPS, 1 mM DTT, pH7.2). 4× Substrate solution and 4× kinase/Metal solution are prepared with MOPS based buffer containing individual kinase specific additives. Then, […] of 4× compound solution, 5 μL of 4× Substrate solution, 5 μL of 4×ATP solution, and 5 μL of 4× kinase/Metal solution are mixed and incubated in a well of polystyrene 384 well black microplate for 1 hour at room temperature. Next, 20 μL of ADP-Glo™ Reagent (Promega) is added to the well, and incubated for over 40 minutes. 40 μL of Kinase Detection Reagent (Promega) is added to the well, and incubated for over 40 minutes. The kinase reaction is evaluated by the endpoint luminescence of the well.
For measurement of PIKFYVE activity, the substrate is PI3P at 10,000 nM concentration, using AG-182 as a positive control. The metal used is magnesium at 5 mM concentration.

[4] = test system: PIK3CA, PIP4K2A, PIP4K2B, PIP4K1A, PIP4K1B, PIP4K1C, PIP5KL1; test: Comparative Kinase Assays (selectivity versus other lipid kinases); type: biochemical
Experimental: as §1
To determine whether the compounds are selective, the assay is repeated using appropriate substrates for different test enzymes:
The compounds of Examples 1, 3 and 6 are tested against these enzymes: […]

SARS-CoV-2 in Vero cells = test: SARS-CoV-2 immunofluorescence assay (IFA); type: cell-based; conditions: Severe acute respiratory syndrome coronavirus 2, SARS-CoV2 IFA Assay
[5] = Cytotoxicity (CC50) in SARS-CoV-2 IFA; type: cell-based; conditions: African green monkey; SARS-CoV2 IFA Assay; Vero cells
Experimental: SARS-CoV-2 IFA: In 384-well plates, Vero cells re seeded at an appropriate density and cultured at 37° C. and 5% CO2. Serially diluted (10 concentrations, in duplicates) test/reference compounds are added. Then the cells are infected with virus. The resulting cultures are incubated for an additional 1 day. The cells are then fixed and analyzed by immunofluorescence. EC50 and CC50 values are calculated with GraphPad Prism software.

[6] = test system: influenza A strain California/07/09 (H1N1) pdm09 in MDCK cells; test: Influenza A IFA assay (CPE inhibition, neutral red); type: cell-based; conditions: Influenza A virus
[7] = Cytotoxicity (CC50) in Influenza A assay; type: cell-based; conditions: dog; Influenza A IFA Assay; MDCK cells
Experimental: Influenza A IFA: Test compounds are solubilized in DMSO to prepare 20 mg/mL stock solutions. Compounds are then serially diluted using eight half-log dilutions in test media so that the starting (high) test concentration is 100 μg/mL. Each dilution is added to 5 wells of a 96-well plate with 80-100% confluent MDCK cells. Three wells of each dilution are infected with virus (strain influenza A strain California/07/09 (H1N1) pdm09), and two wells remain uninfected as toxicity controls. As virus controls, six wells are infected but untreated, and as cell controls, six wells are uninfected and untreated. Each virus is prepared to achieve an MOI (multiplicity of infection) of 0.001. A positive control compound is tested in parallel. Plates are incubated at 37° C. under 5% CO2 atmosphere. On day 3 post-infection (once untreated virus control cells reached maximum cytopathic effect, CPE), plates are stained with neutral red dye for 2 hours. Supernatant dye is removed and the wells are rinsed with PBS. The incorporated dye is extracted using 50:50 Sorensen citrate buffer/ethanol for at least 30 minutes, and the optical density is read at […] on a spectrophotometer. […] The selectivity index (SI) is calculated as CC50 divided by EC50. […]

[8] = test system: HuT-78 (T cell lymphoma) cells; test: Anti-proliferative assay (CellTiter-Glo), HuT-78; type: cell-based; conditions: Homo sapiens, HuT78, 144 h, six days incubation
Experimental: (§2) Selected compounds are evaluated for their anti-proliferative activity against human cutaneous T-cell lymphoma and multiple myeloma cell lines.
(§3) HuT-78 (T cell lymphoma) cells or JJN3 (multiple myeloma) cells are cultured in RPMI-1640 with 10% FBS and 1% penicillin/streptomycin. 45 μL suspensions of cells are transferred to the wells of 384-well plate for a density of 1,000 cells per well. The plates are incubated overnight at 37° C. under 5% CO2 atmosphere. Test compounds are dissolved in 100% DMSO at a 2 mM concentration, then diluted 20× in assay medium for to provide a 5% DMSO concentration and 100 μM compound concentration. 5 μL of this compound solution is added to the 45 μL cell suspension in the assay plate for a top plate concentration of 10 μM and 0.5% DMSO concentration. For positive controls, 10 μM APY0201 is added instead of the compound solution. After spinning at 1000 rpm for 1 minutes, the cell plate is placed in the incubator […] at 37° C. under 5% CO2 atmosphere. After incubation for six days, the cell plate is equilibrated to room temperature for 20 minutes. 25 μL of CellTiter-Glo (CTG) reagent (Promega Cat No. G7572) is added to each well, and the plate is shaken for 15 minutes at 300 rpm. Luminescence is read on an Envision plate reader.

[9] = test system: JJN3 (multiple myeloma) cells; test: Anti-proliferative assay (CellTiter-Glo), JJN3; type: cell-based; conditions: Homo sapiens, JJN-3, 144 h, six days incubation
Experimental: as §2, §3

T1 sequence (Q9Y2I7 whole entry): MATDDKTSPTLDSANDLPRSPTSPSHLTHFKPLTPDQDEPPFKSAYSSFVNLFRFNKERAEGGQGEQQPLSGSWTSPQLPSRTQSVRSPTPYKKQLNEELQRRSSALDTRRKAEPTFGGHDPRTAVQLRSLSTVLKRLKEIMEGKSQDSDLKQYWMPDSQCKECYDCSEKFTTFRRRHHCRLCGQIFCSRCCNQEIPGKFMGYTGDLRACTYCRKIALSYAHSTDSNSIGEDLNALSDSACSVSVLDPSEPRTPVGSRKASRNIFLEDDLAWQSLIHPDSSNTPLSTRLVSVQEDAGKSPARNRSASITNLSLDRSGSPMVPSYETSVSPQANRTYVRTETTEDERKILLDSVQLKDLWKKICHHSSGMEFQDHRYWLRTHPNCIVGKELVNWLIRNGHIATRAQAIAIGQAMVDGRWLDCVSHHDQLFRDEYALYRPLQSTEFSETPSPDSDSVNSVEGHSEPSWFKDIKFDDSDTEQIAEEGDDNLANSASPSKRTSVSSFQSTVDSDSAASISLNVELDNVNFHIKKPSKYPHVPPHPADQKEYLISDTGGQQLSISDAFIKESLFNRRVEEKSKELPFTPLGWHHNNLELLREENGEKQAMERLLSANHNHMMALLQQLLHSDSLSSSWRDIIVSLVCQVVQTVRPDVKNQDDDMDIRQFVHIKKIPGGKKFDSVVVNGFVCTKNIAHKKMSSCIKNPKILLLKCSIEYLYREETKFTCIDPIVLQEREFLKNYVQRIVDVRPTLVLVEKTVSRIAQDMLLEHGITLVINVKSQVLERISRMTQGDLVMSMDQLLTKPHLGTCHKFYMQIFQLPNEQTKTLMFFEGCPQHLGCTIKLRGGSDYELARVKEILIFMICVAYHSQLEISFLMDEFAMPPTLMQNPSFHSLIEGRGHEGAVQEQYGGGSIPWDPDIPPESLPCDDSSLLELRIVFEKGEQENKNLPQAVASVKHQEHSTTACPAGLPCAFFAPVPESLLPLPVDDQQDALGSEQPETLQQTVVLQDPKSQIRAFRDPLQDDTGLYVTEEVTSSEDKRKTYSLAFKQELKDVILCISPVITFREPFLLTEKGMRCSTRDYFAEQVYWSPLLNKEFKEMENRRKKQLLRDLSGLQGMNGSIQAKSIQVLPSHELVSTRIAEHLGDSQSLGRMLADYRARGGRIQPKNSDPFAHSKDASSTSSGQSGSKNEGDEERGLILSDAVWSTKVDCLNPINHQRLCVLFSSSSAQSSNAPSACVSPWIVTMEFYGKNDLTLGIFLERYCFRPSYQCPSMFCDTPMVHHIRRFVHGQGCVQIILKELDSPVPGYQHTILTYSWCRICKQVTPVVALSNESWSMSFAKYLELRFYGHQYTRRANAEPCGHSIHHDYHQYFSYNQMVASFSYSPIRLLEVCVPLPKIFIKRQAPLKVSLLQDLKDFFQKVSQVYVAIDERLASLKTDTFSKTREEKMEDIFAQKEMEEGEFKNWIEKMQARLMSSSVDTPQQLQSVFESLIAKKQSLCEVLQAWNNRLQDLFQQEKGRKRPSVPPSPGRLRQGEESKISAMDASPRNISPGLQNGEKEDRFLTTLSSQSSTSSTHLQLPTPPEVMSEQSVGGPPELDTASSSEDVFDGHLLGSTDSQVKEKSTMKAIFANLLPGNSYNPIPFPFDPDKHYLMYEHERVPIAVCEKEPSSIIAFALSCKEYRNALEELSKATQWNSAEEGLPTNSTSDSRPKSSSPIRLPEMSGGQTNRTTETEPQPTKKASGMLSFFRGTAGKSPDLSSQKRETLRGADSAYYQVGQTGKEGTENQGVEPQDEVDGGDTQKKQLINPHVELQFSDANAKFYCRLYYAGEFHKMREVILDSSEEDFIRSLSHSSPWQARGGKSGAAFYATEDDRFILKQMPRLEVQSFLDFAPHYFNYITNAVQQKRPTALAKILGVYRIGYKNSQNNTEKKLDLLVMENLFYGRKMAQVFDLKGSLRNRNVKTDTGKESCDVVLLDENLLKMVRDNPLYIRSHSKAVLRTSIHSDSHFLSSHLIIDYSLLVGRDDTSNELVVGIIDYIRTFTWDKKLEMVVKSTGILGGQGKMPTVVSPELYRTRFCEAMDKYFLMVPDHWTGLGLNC

## 4-(2-(pyridin-4-yl)-5-(3-(3-(trifluoromethyl)phenyl)-1H-pyrazol-1-yl)pyrazolo[1,5-a]pyrimidin-7-yl)morpholine [Ex. 21]
PIKFYVE [1]; KINOMEScan Kinase Assay
  % Inhib. (50 nM): ++ (>50%-80%)

## Cc1cccc(/C=N/Nc2cc(N3CCOCC3)nc(OCCc3ccccn3)n2)c1 [Apilimod, reference compound]
[2]
  EC50: < 10 nM
In vitro
  CC50: 8000 nM

## CCN(CC)CCCC(C)Nc1ccnc2cc(Cl)ccc12 (centres unmarked) [Chloroquine, chloroquine, reference compound]
[2]
  EC50: 6000 nM
In vitro
  CC50: 35000 nM

## Cc1cccc(-c2ccn(-c3cc(N4CCOCC4)n4nc(-c5ccncc5)cc4n3)n2)c1 [Ex. 1]
PIKFYVE [3]
  IC50: < 50 nM
[4]
  Fold Selectivity for PIKFYVE: >100-fold
[2]
  EC50: < 10 nM
SARS-CoV-2 in Vero cells
  EC50: 100 to 1000 nM
[5]
  CC50 at 1 day: > 20000 nM
[6]
  EC50: 1000 to 5000 nM
[7]
  CC50: > 20000 nM
[8]
  IC50: 100 to 1000 nM
[9]
  IC50: < 100 nM
In vitro
  CC50: 5000 to 10000 nM
PIKFYVE [1]
  Kd: < 1 nM

## Fc1cccc(-c2ccn(-c3cc(N4CCOCC4)n4nc(-c5ccncc5)cc4n3)n2)c1 [Ex. 2]
PIKFYVE [3]
  IC50: < 50 nM
PIKFYVE [1]
  inhibition at 0.05 µM: 50 to 80%

## Brc1cccc(-c2ccn(-c3cc(N4CCOCC4)n4nc(-c5ccncc5)cc4n3)n2)c1 [Ex. 3]
[2]
  EC50: < 10 nM
SARS-CoV-2 in Vero cells
  EC50: 1000 to 5000 nM
[5]
  CC50 at 1 day: > 20000 nM
[6]
  EC50: 5000 to 10000 nM
[7]
  CC50: > 20000 nM
In vitro
  CC50: > 10000 nM
PIKFYVE [1]
  inhibition at 0.05 µM: 80 to 100%

## N#Cc1cccc(-c2ccn(-c3cc(N4CCOCC4)n4nc(-c5ccncc5)cc4n3)n2)c1 [Ex. 4]
PIKFYVE [3]
  IC50: < 50 nM
PIKFYVE [1]
  inhibition at 0.05 µM: 50 to 80%

## CC(C)(C)c1ccn(-c2cc(N3CCOCC3)n3nc(-c4ccncc4)cc3n2)n1 [Ex. 5]
PIKFYVE [3]
  IC50: > 1000 nM
PIKFYVE [1]
  inhibition at 0.05 µM: < 50%

## COc1cccc(-c2ccn(-c3cc(N4CCOCC4)n4nc(-c5ccncc5)cc4n3)n2)c1 [Ex. 6]
PIKFYVE [3]
  IC50: < 50 nM
[4]
  Fold Selectivity for PIKFYVE: >200-fold
[2]
  EC50: < 10 nM
[8]
  IC50: 100 to 1000 nM
[9]
  IC50: < 100 nM
In vitro
  CC50: 5000 to 10000 nM
PIKFYVE [1]
  Kd: < 1 nM

## Cc1ccccc1-c1ccn(-c2cc(N3CCOCC3)n3nc(-c4ccncc4)cc3n2)n1 [Ex. 7]
PIKFYVE [3]
  IC50: 50 to 1000 nM
PIKFYVE [1]
  inhibition at 0.05 µM: < 50%

## Fc1ccccc1-c1ccn(-c2cc(N3CCOCC3)n3nc(-c4ccncc4)cc3n2)n1 [Ex. 8]
PIKFYVE [3]
  IC50: < 50 nM
PIKFYVE [1]
  inhibition at 0.05 µM: 50 to 80%

## Fc1ccc(-c2ccn(-c3cc(N4CCOCC4)n4nc(-c5ccncc5)cc4n3)n2)cc1 [Ex. 9]
PIKFYVE [3]
  IC50: < 50 nM
PIKFYVE [1]
  inhibition at 0.05 µM: 50 to 80%

## FC(F)(F)c1ccc(-c2ccn(-c3cc(N4CCOCC4)n4nc(-c5ccncc5)cc4n3)n2)cc1 [Ex. 10]
PIKFYVE [3]
  IC50: > 1000 nM
PIKFYVE [1]
  inhibition at 0.05 µM: < 50%

## COc1cccc(-c2ccn(-c3cc(N4CCO[C@H](C)C4)n4nc(-c5ccncc5)cc4n3)n2)c1 [Ex. 11]
PIKFYVE [1]; KINOMEScan Kinase Assay
  Kd: 5 to 10 nM

## COc1cccc(-c2ccn(-c3cc(N4CCO[C@@H](C)C4)n4nc(-c5ccncc5)cc4n3)n2)c1 [Ex. 12]
PIKFYVE [1]; KINOMEScan Kinase Assay
  % Inhib. (50 nM): +++ (>80%-100%)

## COc1cccc(-c2ccn(-c3cc(N4CCOC[C@@H]4C)n4nc(-c5ccncc5)cc4n3)n2)c1 [Ex. 13]
PIKFYVE [1]; KINOMEScan Kinase Assay
  % Inhib. (50 nM): +++ (>80%-100%)

## COc1cccc(-c2ccn(-c3cc(N4CCOC[C@H]4C)n4nc(-c5ccncc5)cc4n3)n2)c1 [Ex. 14]
PIKFYVE [1]; KINOMEScan Kinase Assay
  Kd: 5 to 10 nM

## COc1cccc(-c2ccn(-c3cc(N4CCOCC4)n4nc(-c5ccncc5)cc4n3)n2)c1 [Ex. 15]
PIKFYVE [1]; KINOMEScan Kinase Assay
  Kd: 1 to 5 nM

## Cc1cccc(-c2ccn(-c3cc(N4CCOCC4)n4nc(-c5ccncc5)cc4n3)n2)c1 [Ex. 17]
PIKFYVE [1]; KINOMEScan Kinase Assay
  Kd: < 1 nM

## [O-][n+]1ccc(-c2cc3nc(-n4ccc(-c5cccc(Br)c5)n4)cc(N4CCOCC4)n3n2)cc1 [Ex. 18, 4-(5-(3-(3-bromophenyl)-1H-pyrazol-1-yl)-7-morpholinopyrazolo[1,5-a]pyrimidin-2-yl)pyridine 1-oxide]
PIKFYVE [1]
  Kd: < 1 nM

## FC(F)(F)Oc1cccc(-c2ccn(-c3cc(N4CCOCC4)n4nc(-c5ccncc5)cc4n3)n2)c1 [Ex. 22, 4-(2-(pyridin-4-yl)-5-(3-(3-(trifluoromethoxy)phenyl)-1H-pyrazol-1-yl)pyrazolo[1,5-a]pyrimidin-7-yl)morpholine]
PIKFYVE [1]
  inhibition at 0.05 µM: < 50%

## CCOc1cccc(-c2ccn(-c3cc(N4CCOCC4)n4nc(-c5ccncc5)cc4n3)n2)c1 [Ex. 23, 4-(5-(3-(3-ethoxyphenyl)-1H-pyrazol-1-yl)-2-(pyridin-4-yl)pyrazolo[1,5-a]pyrimidin-7-yl)morpholine]
PIKFYVE [1]
  inhibition at 0.05 µM: < 50%

## Cc1cccc(-c2ccn(-c3cc(N4CCOCC4)n4nc(Br)cc4n3)n2)c1 [Ex. 24, 4-(2-bromo-5-(3-(m-tolyl)-1H-pyrazol-1-yl)pyrazolo[1,5-a]pyrimidin-7-yl)morpholine]
PIKFYVE [1]
  Kd: 1 to 5 nM

## Cc1cccc(-c2ccn(-c3cc(N4CCOCC4)n4nc(-c5ccnnc5)cc4n3)n2)c1 [Ex. 25, 4-(2-(pyridazin-4-yl)-5-(3-(m-tolyl)-1H-pyrazol-1-yl)pyrazolo[1,5-a]pyrimidin-7-yl)morpholine]
PIKFYVE [1]
  Kd: < 1 nM

## Cc1cccc(-c2ccn(-c3cc(N4CCOCC4)n4nc(C5=CCN(C(=O)OC(C)(C)C)CC5)cc4n3)n2)c1 [Ex. 26, tert-butyl4-(7-morpholino-5-(3-(m-tolyl)-1H-pyrazol-1-yl)pyrazolo[1,5-a]pyrimidin-2-yl)-3,6-dihydropyridine-1(2H)-carboxylate]
PIKFYVE [1]
  inhibition at 0.05 µM: 80 to 100%

## C=Cc1cc2nc(-n3ccc(-c4cccc(C)c4)n3)cc(N3CCOCC3)n2n1 [Ex. 27, 4-(5-(3-(m-tolyl)-1H-pyrazol-1-yl)-2-vinylpyrazolo[1,5-a]pyrimidin-7-yl)morpholine]
PIKFYVE [1]
  inhibition at 0.05 µM: 80 to 100%

## Cc1cccc(-c2ccn(-c3cc(N4CCOCC4)n4nc(C5=CCNCC5)cc4n3)n2)c1 [Ex. 28, 4-(2-(1,2,3,6-tetrahydropyridin-4-yl)-5-(3-(m-tolyl)-1H-pyrazol-1-yl)pyrazolo[1,5-a]pyrimidin-7-yl)morpholine]
PIKFYVE [1]
  Kd: 1 to 5 nM

## Cc1cccc(-c2ccn(-c3cc(N4CCOCC4)n4nc(C5=CC[N+](C)(C)CC5)cc4n3)n2)c1 [Ex. 29, 1,1-dimethyl-4-(7-morpholino-5-(3-(m-tolyl)-1H-pyrazol-1-yl)pyrazolo[1,5-a]pyrimidin-2-yl)-1,2,3,6-tetrahydropyridin-1-ium]
PIKFYVE [1]; KINOMEScan Kinase Assay
  % Inhib. (50 nM): +++ (>80%-100%)
